The numbers were not newly measured in PMC5525545 (Nature, 2017), which cites them from elsewhere.

For one data set, the system named is AT2R. As to conditions: activation of AT2R.
The conditions of data set [1]: patients with post-herpetic neuralgia.
The conditions of data set [2]: several neuropathic pain models in rodents.
The test system of data set [3] is AngII-induced neuronal excitability.

Molecules are shown by their SMILES.

In the case of `CCCCOC(=O)NS(=O)(=O)c1sc(CC(C)C)cc1-c1ccc(Cn2ccnc2)cc1` [Compound 21], the “beneficial in vivo effects” value with AT2R is “inducing pressure natriuresis, lowering blood pressure, conferring acute vaso-relaxation, and exhibiting organ protective effects”.
With `COc1ccc2c(c1OCc1ccccc1)C[C@@H](C(=O)O)N(C(=O)C(c1ccccc1)c1ccccc1)C2` [EMA401], in data set [1], the “efficacy in phase II clinical trials” value was “demonstrated efficacy”.
As for `Cc1cc(Cn2cnc3c2C[C@@H](C(=O)O)N(C(=O)C(c2ccccc2)c2ccccc2)C3)ccc1N(C)C` [PD123319], in data set [2], the oral bioavailability result is reported as “exhibits oral bioavailability”. In addition, the “effect on AngII-induced neuronal excitability” value in data set [3] is on record as “blocks AngII-induced neuronal excitability”.
